In PMC8268022, “Loureirin B Exerts its Immunosuppressive Effects by Inhibiting STIM1/Orai1 and KV1.3 Channels” (Frontiers in Pharmacology, 2021):

Biological target: T1, Orai1 (STIM1/Orai1 channel, CRAC channel) (Homo sapiens, UniProt Q96D31)
T1 construct: with STIM1
Assay: whole-cell patch clamp of STIM1/Orai1 currents in transfected HEK293T cells
Format: cell-based

T1 sequence (Q96D31 whole entry): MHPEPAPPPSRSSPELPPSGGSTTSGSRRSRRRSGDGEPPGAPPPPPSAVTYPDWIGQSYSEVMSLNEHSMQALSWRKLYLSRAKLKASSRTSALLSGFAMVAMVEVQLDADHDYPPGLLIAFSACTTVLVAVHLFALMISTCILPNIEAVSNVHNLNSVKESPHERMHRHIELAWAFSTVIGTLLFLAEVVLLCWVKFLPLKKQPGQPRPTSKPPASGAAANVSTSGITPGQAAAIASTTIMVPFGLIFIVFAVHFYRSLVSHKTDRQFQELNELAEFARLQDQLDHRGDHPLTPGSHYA
T1 sequence (Q13586 23-685 partner): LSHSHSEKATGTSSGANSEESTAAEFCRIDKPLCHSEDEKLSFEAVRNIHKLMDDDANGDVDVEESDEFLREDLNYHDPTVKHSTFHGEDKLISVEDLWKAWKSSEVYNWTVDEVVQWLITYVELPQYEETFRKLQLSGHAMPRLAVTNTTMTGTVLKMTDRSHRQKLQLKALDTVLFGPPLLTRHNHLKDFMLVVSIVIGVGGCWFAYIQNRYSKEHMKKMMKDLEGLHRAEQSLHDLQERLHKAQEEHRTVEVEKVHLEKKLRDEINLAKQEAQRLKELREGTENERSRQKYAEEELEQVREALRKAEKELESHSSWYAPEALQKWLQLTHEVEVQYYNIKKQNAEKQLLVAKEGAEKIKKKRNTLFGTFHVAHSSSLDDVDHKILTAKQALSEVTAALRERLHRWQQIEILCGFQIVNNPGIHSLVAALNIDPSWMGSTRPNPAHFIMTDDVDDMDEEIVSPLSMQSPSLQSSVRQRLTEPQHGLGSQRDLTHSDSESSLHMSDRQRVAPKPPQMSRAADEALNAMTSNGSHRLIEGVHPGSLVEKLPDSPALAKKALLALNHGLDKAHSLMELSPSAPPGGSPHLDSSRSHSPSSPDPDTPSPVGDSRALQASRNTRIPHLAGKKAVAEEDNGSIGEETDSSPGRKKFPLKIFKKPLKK

- IC50: 17.1 ± 2.17 µM
SMILES: COc1cc(OC)c(CCC(=O)c2ccc(O)cc2)c(OC)c1 [LrB, Loureirin B]
